Counter-ions that a name gives are not always drawn. Like-named read-outs stand apart in the source and are kept apart here.
Key:
Assay type in all cases: cell-based, human
[1] = system: TSGH-8301 (Urinary Bladder Carcinoma); test: Cell viability analysis, bladder cancer TSGH-8301; conditions: 72 h; for viability at 10 µM: Homo sapiens
[2] = system: HepG2 (Hepatocellular Carcinoma); test: Cell viability analysis, hepatic cancer HepG2; conditions: Homo sapiens, HepG2, 72 h
[3] = system: HI650 (Lung Adenocarcinoma); test: Cell viability analysis, lung cancer HI650; conditions: Homo sapiens, NCI-H1650, 72 h
[4] = system: HL-60 (Acute Promyelocytic Leukemia); test: Cell viability analysis, leukemia HL-60; conditions: Homo sapiens, HL-60, 72 h
[5] = system: AGS (Gastric Adenocarcinoma); test: Cell viability analysis, gastric cancer AGS; conditions: Homo sapiens, 72 h
[6] = system: A549 (Lung Adenocarcinoma); test: Cell viability analysis, lung cancer A549; conditions: for viability at 10 µM: Homo sapiens, A549, 72 h
[7] = system: A375 (Amelanotic Melanoma); test: Cell viability analysis, skin cancer A375; conditions: for viability at 10 µM: Homo sapiens, A-375, 72 h
[8] = system: cancer cell lines; test: Cell viability analysis (WST-1) on cancer cell lines; conditions: drug 10 μM, 72 hours, WST-1; Table 3
[9] = system: PC3 (p53−) (Prostate Adenocarcinoma); test: Cell viability analysis, prostate cancer PC3; conditions: 72 h; for viability at 10 µM: Homo sapiens
[10] = system: HeLa (Cervix Adenocarcinoma); test: Cell viability analysis, cervical cancer HeLa; conditions: Homo sapiens, HeLa, 72 h
[11] = system: LoVo (Colorectal Adenocarcinoma); test: Cell viability analysis, colon cancer LoVo; conditions: 72 h; for viability at 10 µM: Homo sapiens, LoVo, read-out: cell viability (survival rate), LoVo, drug 10 μM, 72 hours, WST-1, OD450 nm
[12] = system: MCF7 (Mammary Gland, Adenocarcinoma); test: Cell viability analysis, breast cancer MCF7; conditions: Homo sapiens, MCF7, 72 h
[13] = system: MKN-45 (Gastric Adenocarcinoma); test: Cell viability analysis, gastric cancer MKN-45; conditions: for viability at 10 µM: Homo sapiens, MKN-45, 72 h
[14] = drug 10 μM, 72 hours, WST-1, OD450 nm, read-out: cell viability (survival rate), TSGH
[15] = drug 10 μM, 72 hours, WST-1, OD450 nm, read-out: cell viability (survival rate), HepG2
[16] = drug 10 μM, 72 hours, WST-1, OD450 nm, read-out: cell viability (survival rate), H1650
[17] = drug 10 μM, 72 hours, WST-1, OD450 nm, read-out: cell viability (survival rate), HL-60
[18] = drug 10 μM, 72 hours, WST-1, OD450 nm, read-out: cell viability (survival rate), AGS
[19] = drug 10 μM, 72 hours, WST-1, OD450 nm, read-out: cell viability (survival rate), A549
[20] = drug 10 μM, 72 hours, WST-1, OD450 nm, read-out: cell viability (survival rate), A375
[21] = drug 10 μM, 72 hours, WST-1, OD450 nm, read-out: cell viability (survival rate), PC3
[22] = drug 10 μM, 72 hours, WST-1, OD450 nm, read-out: cell viability (survival rate), HeLa
[23] = drug 10 μM, 72 hours, WST-1, OD450 nm, read-out: cell viability (survival rate), MCF7
[24] = drug 10 μM, 72 hours, WST-1, OD450 nm, read-out: cell viability (survival rate), MKN-45
[25] = read-out: cell viability (survival rate), TSGH, drug 10 μM, 72 hours, WST-1, OD450 nm
[26] = read-out: cell viability (survival rate), HepG2, drug 10 μM, 72 hours, WST-1, OD450 nm
[27] = read-out: cell viability (survival rate), H1650, drug 10 μM, 72 hours, WST-1, OD450 nm
[28] = read-out: cell viability (survival rate), HL-60, drug 10 μM, 72 hours, WST-1, OD450 nm
[29] = read-out: cell viability (survival rate), AGS, drug 10 μM, 72 hours, WST-1, OD450 nm
[30] = read-out: cell viability (survival rate), A549, drug 10 μM, 72 hours, WST-1, OD450 nm
[31] = read-out: cell viability (survival rate), A375, drug 10 μM, 72 hours, WST-1, OD450 nm
[32] = read-out: cell viability (survival rate), PC3, drug 10 μM, 72 hours, WST-1, OD450 nm
[33] = read-out: cell viability (survival rate), HeLa, drug 10 μM, 72 hours, WST-1, OD450 nm
[34] = read-out: cell viability (survival rate), MCF7, drug 10 μM, 72 hours, WST-1, OD450 nm
[35] = read-out: cell viability (survival rate), MKN-45, drug 10 μM, 72 hours, WST-1, OD450 nm

Structure (SMILES)	viability at 10 µM [1, 14]	viability at 10 µM [2, 15]	viability at 10 µM [3, 16]	viability at 10 µM [4, 17]	viability at 10 µM [5, 18]	viability at 10 µM [6, 19]	viability at 10 µM [7, 20]	inhibition effect on different cancer cell lines [8]	viability at 10 µM [11]	viability at 10 µM [1, 25]	viability at 10 µM [2, 26]	viability at 10 µM [3, 27]	viability at 10 µM [4, 28]	viability at 10 µM [5, 29]	viability at 10 µM [6, 30]	viability at 10 µM [7, 31]	viability at 10 µM [9, 32]	viability at 10 µM [10, 33]	viability at 10 µM [12, 34]	viability at 10 µM [13, 35]	further results
C[C@@H](O)[C@H]1C(=O)N2C(C(=O)O)=C(S[C@@H]3CN[C@H](C(=O)N(C)C)C3)[C@H](C)[C@H]12 [Meropenem]	132%	99.3%	55.4%	102%	68.3%	46%	65.1%	significant inhibition effect	87.3%	–	–	–	–	–	–	–	–	–	–	–	viability at 10 µM [9, 21]: 70.7%; viability at 10 µM [10, 22]: 111%; viability at 10 µM [12, 23]: 68.1%; viability at 10 µM [13, 24]: 84.9%
CC1(C)S[C@@H]2[C@H](NC(=O)[C@H](NC(=O)N3CCN(S(C)(=O)=O)C3=O)c3ccccc3)C(=O)N2[C@H]1C(=O)O [Mezlocillin Sodium]	–	–	–	–	–	–	–	significant inhibition effect	116%	91.9%	95.1%	81%	91.4%	72.2%	78%	107%	97.8%	111%	107%	92.9%	–
CN(C/C=C/c1ccccc1)Cc1cccc2ccccc12 [Naftifine HCl]	–	–	–	–	–	–	–	significant inhibition effect	86.3%	79.6%	91.2%	72.3%	93.2%	104%	127%	63.3%	109%	80.6%	84.5%	58.5%	–
C[C@@H]1C/C=C/C=C/C=C/C=C/[C@H](O[C@@H]2O[C@H](C)[C@@H](O)[C@H](N)[C@@H]2O)C[C@@H]2O[C@](O)(C[C@@H](O)C[C@H]3O[C@@H]3/C=C/C(=O)O1)C[C@H](O)[C@H]2C(=O)O [Natamycin (Pimaricin), Natamycin]	–	–	–	–	–	–	–	significant inhibition effect	84.8%	84.9%	95.3%	57%	107%	40.9%	62.6%	82.1%	70%	93.5%	83.2%	67.1%	–
Cc1ccnc2c1NC(=O)c1cccnc1N2C1CC1 [Nevirapine (Viramune), Nevirapine]	103%	85.5%	89.7%	98.7%	115%	45.7%	66.8%	significant inhibition effect	85.7%	–	–	–	–	–	–	–	–	–	–	–	viability at 10 µM [9, 21]: 84.1%; viability at 10 µM [10, 22]: 58.9%; viability at 10 µM [12, 23]: 38.5%; viability at 10 µM [13, 24]: 68.3%
O=C(O)c1cccnc1Nc1cccc(C(F)(F)F)c1 [Niflumic acid]	66.8%	87.4%	50.8%	132%	40.5%	99.2%	50%	significant inhibition effect	82%	–	–	–	–	–	–	–	–	–	–	–	viability at 10 µM [9, 21]: 111%; viability at 10 µM [10, 22]: 51.9%; viability at 10 µM [12, 23]: 86.9%; viability at 10 µM [13, 24]: 68.7%
O=C(N/N=C/c1ccc([N+](=O)[O-])o1)c1ccc(O)cc1 [Nifuroxazide]	–	–	–	–	–	–	–	significant inhibition effect	58.3%	56.2%	73%	57.6%	38.8%	36.7%	33.2%	51.6%	92%	66.6%	80.1%	51%	–
CCn1cc(C(=O)O)c(=O)c2cc(F)c(N3CCNCC3)cc21 [Norfloxacin (Norxacin), Norfloxacin]	–	–	–	–	–	–	–	significant inhibition effect	88%	75.9%	90.5%	75%	87.7%	63.8%	84.8%	73.8%	72.2%	78.7%	94.8%	68.9%	–
C[C@@H]1CN(c2c(F)c(F)c3c(=O)c(C(=O)O)cn(C4CC4)c3c2F)C[C@H](C)N1 [Orbifloxacin]	44.3%	84.2%	63.7%	92.3%	84.5%	44.2%	55.6%	significant inhibition effect	75.4%	–	–	–	–	–	–	–	–	–	–	–	viability at 10 µM [9, 21]: 51.1%; viability at 10 µM [10, 22]: 66.8%; viability at 10 µM [12, 23]: 33.3%; viability at 10 µM [13, 24]: 44.1%
CN(C)[C@@H]1C(O)=C(C(N)=O)C(=O)[C@@]2(O)C(O)=C3C(=O)c4c(O)cccc4[C@@](C)(O)[C@H]3[C@H](O)[C@@H]12 [Oxytetracycline dihydrate]	–	–	–	–	–	–	–	significant inhibition effect	–	–	93.4%	73.8%	99.3%	71.7%	–	–	–	65.6%	34.2%	–	cell viability (survival rate), TSGH ([1]; human, 10 µM): 53.4; cell viability (survival rate), A549 ([6]; human, 72 h, 10 µM): 22.1; cell viability (survival rate), A375 ([7]; human, 72 h, 10 µM): 72.5; cell viability (survival rate), PC3 ([9]; human, 10 µM): 42.1; cell viability (survival rate), LoVo ([11]; human, 10 µM): 47.0; cell viability (survival rate), MKN-45 ([13]; human, 72 h, 10 µM): 81.4
Nc1nc2c(ncn2CCC(CO)CO)c(=O)[nH]1 [Penciclovir]	–	–	–	–	–	–	–	significant inhibition effect	98.5%	79.1%	95.7%	71.5%	114%	71%	74.7%	64.2%	106%	81.7%	110%	98.5%	–
C[C@]12C=CC(=O)C=C1CC[C@@H]1[C@@H]2[C@@H](O)C[C@@]2(C)[C@H]1CC[C@]2(O)C(=O)CO [Prednisolone (Hydroretrocortine), Prednisolone]	–	–	–	–	–	–	–	significant inhibition effect	92.5%	86.2%	82.7%	82.5%	99%	124%	71.3%	71%	83.3%	78.7%	45.5%	67.8%	–

— patent publication US10105357B2, “Indication of antibiotic drugs for preparation of cancer inhibition pharmaceutical composition” (LAUNX BIOMEDICAL CO., LTD., priority 2014, dated 2018)
